We go through 20 compounds from ChEMBL document CHEMBL4393727, “Investigating 1,2,3,4,5,6-hexahydroazepino[4,3-b]indole as scaffold of butyrylcholinesterase-selective inhibitors with additional neuroprotective activities for Alzheimer's disease” (Eur J Med Chem, 2019).

Each structure is given as a SMILES string. pIC50, pKi: −log10 of the molar value. Calls of active or inactive are those of the source. No cut-off for these calls is given here.

T1 sequence (P81908 whole entry): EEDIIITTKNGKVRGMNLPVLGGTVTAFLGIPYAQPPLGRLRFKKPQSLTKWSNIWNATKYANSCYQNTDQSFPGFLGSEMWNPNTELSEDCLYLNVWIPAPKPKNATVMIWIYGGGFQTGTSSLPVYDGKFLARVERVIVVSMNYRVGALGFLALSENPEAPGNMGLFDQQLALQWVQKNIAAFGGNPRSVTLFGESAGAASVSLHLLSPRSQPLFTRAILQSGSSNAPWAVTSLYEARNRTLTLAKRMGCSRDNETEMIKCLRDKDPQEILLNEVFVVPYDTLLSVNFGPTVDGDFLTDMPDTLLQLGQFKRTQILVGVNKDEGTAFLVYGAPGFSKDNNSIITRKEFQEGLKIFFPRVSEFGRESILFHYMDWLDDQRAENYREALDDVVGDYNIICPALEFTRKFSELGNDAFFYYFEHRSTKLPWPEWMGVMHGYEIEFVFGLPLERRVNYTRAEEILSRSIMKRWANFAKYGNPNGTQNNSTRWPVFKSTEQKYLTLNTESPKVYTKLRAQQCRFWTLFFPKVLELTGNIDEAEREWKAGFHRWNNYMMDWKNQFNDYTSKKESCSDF

Test system in the first data set: not listed separately
In words: Selectivity index, ratio of IC50 for electric eel AChE to IC50 for human BuChE.
Conditions: not given
On to `Cl.c1ccc(CCCCN2CCCc3[nH]c4ccccc4c3C2)cc1`, for which the Ratio IC50 was above 100.

Test system in another data set: not listed separately
As to the kind of experiment: Selectivity index, ratio of IC50 for electric eel AChE to IC50 for equine serum BuChE.
Conditions: not given
Regarding `Cl.c1ccc(CCCCN2CCCc3[nH]c4ccccc4c3C2)cc1`, the Ratio IC50 is above 100.

As for `Fc1ccc(CN2CCCc3[nH]c4ccccc4c3C2)cc1`, the Ratio IC50 is 10.

As for `Cl.c1ccc(CCCN2CCCc3[nH]c4ccccc4c3C2)cc1`, the Ratio IC50 is 10 to 100.

`Cn1c2c(c3ccccc31)CN(CCc1ccccc1)CCC2`: the Ratio IC50 lay within 10 to 100.

For `Cl.c1ccc(CCN2CCCc3[nH]c4ccccc4c3C2)cc1`, the Ratio IC50 was in the range of 10 to 100.

`Cc1ccc(CN2CCCc3[nH]c4ccccc4c3C2)cc1`: the Ratio IC50 is 10.

For another data set, the system named is SH-SY5Y. In words: Neuroprotection activity against amyloid beta (1 to 42)-induced cytotoxicity in human SH-SY5Y cells assessed as recovery of viability at 5 uM measured after 48 hrs by MTT assay relative to control. In kind it is functional.
Conditions: not given
Regarding `Cl.c1ccc(CCCCN2CCCc3[nH]c4ccccc4c3C2)cc1`, the Activity worked out at 30%.

The target in the next data set is Cholinesterase (Homo sapiens, UniProt P06276). In words: Inhibition of human BChE using butyrylthiocholine as substrate preincubated for 20 mins followed by substrate addition and measured upto 5 mins by Ellman's method.
Chain of Cholinesterase (Homo sapiens, UniProt P06276) (P06276 whole entry): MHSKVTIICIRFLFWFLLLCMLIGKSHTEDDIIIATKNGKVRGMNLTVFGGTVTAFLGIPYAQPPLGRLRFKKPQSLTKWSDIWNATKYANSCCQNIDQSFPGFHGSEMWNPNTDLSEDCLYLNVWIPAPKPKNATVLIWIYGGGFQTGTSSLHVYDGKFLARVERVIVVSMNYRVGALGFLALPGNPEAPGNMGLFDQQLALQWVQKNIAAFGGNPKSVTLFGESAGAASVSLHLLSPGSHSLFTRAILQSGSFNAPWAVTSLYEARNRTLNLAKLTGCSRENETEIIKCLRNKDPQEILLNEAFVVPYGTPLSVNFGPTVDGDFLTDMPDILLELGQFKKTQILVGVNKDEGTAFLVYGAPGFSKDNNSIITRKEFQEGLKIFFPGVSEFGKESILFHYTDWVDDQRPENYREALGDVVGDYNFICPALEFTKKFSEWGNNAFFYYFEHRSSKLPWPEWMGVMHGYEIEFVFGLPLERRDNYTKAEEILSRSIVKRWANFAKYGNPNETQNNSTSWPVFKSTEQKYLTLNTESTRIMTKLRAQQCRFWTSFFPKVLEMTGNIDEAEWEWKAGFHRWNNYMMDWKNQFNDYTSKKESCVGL
Conditions: not given
Background: In Ellman's method for cholinesterases, released thiocholine reacts with DTNB.
For orientation: pIC50 means the negative decadic logarithm of the IC50, by convention in mol/L. `Cl.c1ccc(CCCCN2CCCc3[nH]c4ccccc4c3C2)cc1` gave a negative-log IC50 (pIC50) of 6.70.

A further data set deals with SH-SY5Y. As to the kind of experiment: Neuroprotective activity against H2O2-induced oxidative stress in human SH-SY5Y cells assessed as reduction in ROS generation preincubated for 1 hr followed by DCFH-DA addition for 30 mins and subsequent co-treatment with compound and H2O2 for 30 min by fluorescence assay. In kind it is functional, cell-based.
Conditions: not given
Regarding `Cl.c1ccc(CCCCN2CCCc3[nH]c4ccccc4c3C2)cc1`, the Activity result was “Dose-dependent effect” and the negative logarithm of the IC50 (pIC50) is 5.00.

A further data set concerns SH-SY5Y. As to the kind of experiment: Neuroprotection activity against amyloid beta (1 to 42)-induced cytotoxicity in human SH-SY5Y cells assessed as recovery of viability at 5 uM by MTT assay. In kind it is functional, cell-based. To be noted: TDE = time-dependent effect.
In the case of `Cl.c1ccc(CCCCN2CCCc3[nH]c4ccccc4c3C2)cc1`, the Activity entry is “Tde”.

In a further data set the target is Amyloid-beta precursor protein (Homo sapiens) (UniProt P05067). As to the kind of experiment: Inhibition of HFIP treated amyloid beta (1 to 40) (unknown origin) self-induced aggregation at 100 uM measured after 2 hrs by Thioflavin T fluorescence assay relative to control.
Chain of Amyloid-beta precursor protein (Homo sapiens) (P05067 whole entry): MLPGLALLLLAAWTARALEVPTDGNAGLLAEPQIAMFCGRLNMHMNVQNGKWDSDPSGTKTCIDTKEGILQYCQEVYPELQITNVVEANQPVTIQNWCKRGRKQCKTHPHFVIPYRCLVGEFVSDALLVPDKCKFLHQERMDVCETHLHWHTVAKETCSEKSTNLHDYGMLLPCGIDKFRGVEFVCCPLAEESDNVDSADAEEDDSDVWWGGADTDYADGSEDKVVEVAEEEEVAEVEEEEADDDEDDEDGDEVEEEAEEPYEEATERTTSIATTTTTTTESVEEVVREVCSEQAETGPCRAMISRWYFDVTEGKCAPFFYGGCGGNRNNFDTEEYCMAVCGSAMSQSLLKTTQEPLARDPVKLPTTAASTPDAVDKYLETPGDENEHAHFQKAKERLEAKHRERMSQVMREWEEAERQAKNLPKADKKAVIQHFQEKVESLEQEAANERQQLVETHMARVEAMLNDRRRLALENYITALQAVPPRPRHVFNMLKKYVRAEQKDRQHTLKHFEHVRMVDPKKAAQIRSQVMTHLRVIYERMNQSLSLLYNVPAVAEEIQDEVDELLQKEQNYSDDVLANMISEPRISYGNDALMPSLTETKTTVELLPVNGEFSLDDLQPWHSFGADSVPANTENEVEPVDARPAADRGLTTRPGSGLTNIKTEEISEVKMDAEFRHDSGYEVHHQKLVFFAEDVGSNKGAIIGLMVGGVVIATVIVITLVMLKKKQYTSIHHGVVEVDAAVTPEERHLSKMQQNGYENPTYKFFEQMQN
Conditions: not given
As a reminder, the inhibition is the percentage by which the read-out fell short of the control. As for `Cl.c1ccc(CCCCN2CCCc3[nH]c4ccccc4c3C2)cc1`, the inhibition was 38 to 54%.

On to `Cl.c1ccc(CCCN2CCCc3[nH]c4ccccc4c3C2)cc1`, for which the inhibition was 38 to 54%.

`Cn1c2c(c3ccccc31)CN(CCc1ccccc1)CCC2`: the inhibition is 38 to 54%.

Compound `Cl.c1ccc(CCN2CCCc3[nH]c4ccccc4c3C2)cc1` displayed an inhibition of 38 to 54%.

`c1ccc(CN2CCCc3[nH]c4ccccc4c3C2)cc1` showed an inhibition of 38 to 54%.

For another data set the target is unchanged. In words: Inhibition of HFIP treated amyloid beta (1 to 40) (unknown origin) self-induced aggregation at 100 uM measured after 2 hrs by Thioflavin T fluorescence assay.
Conditions: not given
Regarding `O=c1c(O)c(-c2ccc(O)c(O)c2)oc2cc(O)cc(O)c12`, the inhibition result is “Active”.

A further data set addresses T1, Cholinesterase (Equus caballus, UniProt P81908). As to the kind of experiment: Inhibition of equine serum BChE using butyrylthiocholine as substrate preincubated for 20 mins followed by substrate addition and measured upto 5 mins by Ellman's method.
Conditions: not given
`Cl.c1ccc(CCCCN2CCCc3[nH]c4ccccc4c3C2)cc1` had a pIC50 of 6.77.

With `CCN(CC)Cc1ccc(CN2CCCc3[nH]c4ccc(F)cc4c3C2)cc1`, the negative-log IC50 (pIC50) is 5.85.

`CN1CCCc2[nH]c3ccccc3c2C1` showed a pIC50 of 4.60.

`Fc1ccc2[nH]c3c(c2c1)CN(Cc1ccc(CN2CCCC2)cc1)CCC3` had a pIC50 of 5.37.

Regarding `Fc1ccc(CN2CCCc3[nH]c4ccccc4c3C2)cc1`, the pIC50 was 5.92.

With `Cc1ccc2[nH]c3c(c2c1)CN(C)CCC3`, the negative-log IC50 (pIC50) is 5.15.

For the compound `Cl.c1ccc(CCCN2CCCc3[nH]c4ccccc4c3C2)cc1`, the pIC50 was 6.55.

`Cn1c2c(c3ccccc31)CN(CCc1ccccc1)CCC2` had a pIC50 of 6.07.

In the case of `Fc1ccc(CN2CCCc3[nH]c4ccc(F)cc4c3C2)cc1`, the negative-log IC50 (pIC50) is 5.54.

As for `Fc1ccc2[nH]c3c(c2c1)CN(Cc1ccccc1)CCC3`, the pIC50 is 5.67.

For `Fc1ccc2[nH]c3c(c2c1)CNCCC3`, the pIC50 is 5.37.

`Cl.c1ccc(CCN2CCCc3[nH]c4ccccc4c3C2)cc1` showed a negative-log IC50 (pIC50) of 6.15.

In turn, `Cc1ccc(CN2CCCc3[nH]c4ccccc4c3C2)cc1` gave a pIC50 of 6.02.

Take `c1ccc(CN2CCCc3[nH]c4ccccc4c3C2)cc1`: the pIC50 is 5.70.

For `O=C(c1ccccc1)N1CCCc2[nH]c3ccc(F)cc3c2C1`, the pIC50 was 5.22.

Turning to `c1ccc2c3c([nH]c2c1)CCCNC3`, the pIC50 was 4.70.

On to `Fc1ccc2[nH]c3c(c2c1)CCCN(Cc1ccccc1)C3`, for which the pIC50 was 5.47.

For `Cc1ccc2[nH]c3c(c2c1)CNCCC3`, the negative-log IC50 (pIC50) was 5.10.

`Cc1ccc2[nH]c3c(c2c1)CN(Cc1ccccc1)CCC3` showed a pIC50 of 5.92.

In a further data set the test system is SH-SY5Y. As to the kind of experiment: Cytotoxicity in human SH-SY5Y cells assessed as decrease in cell viability at 5 uM measured after 48 hrs by MTT assay relative to control. In kind it is cell-based.
Conditions: not given
Regarding `Cl.c1ccc(CCCCN2CCCc3[nH]c4ccccc4c3C2)cc1`, the Activity is recorded as 30%.

The target of a further data set is Acetylcholinesterase (Homo sapiens, UniProt P22303). In words: Inhibition of human AChE using acetylthiocholine iodide as substrate preincubated for 20 mins followed by substrate addition and measured upto 5 mins by Ellman's method.
Chain of Acetylcholinesterase (Homo sapiens, UniProt P22303) (P22303 whole entry): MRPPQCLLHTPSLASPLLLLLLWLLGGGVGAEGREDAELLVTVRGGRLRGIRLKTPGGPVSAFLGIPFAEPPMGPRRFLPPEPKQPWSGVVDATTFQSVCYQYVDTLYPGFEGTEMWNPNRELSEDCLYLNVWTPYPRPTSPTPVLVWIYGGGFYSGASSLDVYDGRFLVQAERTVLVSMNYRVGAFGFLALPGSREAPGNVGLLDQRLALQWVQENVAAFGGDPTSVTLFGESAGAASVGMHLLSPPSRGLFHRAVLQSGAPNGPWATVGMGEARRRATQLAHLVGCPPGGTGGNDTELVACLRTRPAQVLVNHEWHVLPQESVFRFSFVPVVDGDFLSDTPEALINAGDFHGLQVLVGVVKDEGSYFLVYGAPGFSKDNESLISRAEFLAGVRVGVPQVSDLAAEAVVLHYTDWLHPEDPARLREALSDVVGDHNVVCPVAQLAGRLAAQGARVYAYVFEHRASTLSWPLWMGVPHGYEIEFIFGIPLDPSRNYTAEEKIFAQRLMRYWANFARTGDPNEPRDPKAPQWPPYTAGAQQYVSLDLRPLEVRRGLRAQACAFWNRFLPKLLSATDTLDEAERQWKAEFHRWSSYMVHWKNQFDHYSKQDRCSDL
Conditions: not given
For the compound `Cl.c1ccc(CCCCN2CCCc3[nH]c4ccccc4c3C2)cc1`, the pIC50 is 4.70.

A further data set deals with T1, Cholinesterase. In words: Mixed type inhibition of equine serum BChE assessed as Ki using butyrylthiocholine as substrate preincubated for 20 mins followed by substrate addition and measured upto 5 mins by Ellman's method based Lineweaver-Burk plot analysis.
Conditions: not given
One may read the pKi as the Ki on a negative log10 scale, so that one unit is a factor of ten. With `Cl.c1ccc(CCCCN2CCCc3[nH]c4ccccc4c3C2)cc1`, the negative-log Ki (pKi) is 7.01.

The next data set relates to SH-SY5Y. In words: Neuroprotection activity against amyloid beta (1 to 42)-induced toxicity in human SH-SY5Y cells assessed as recovery of viability at 5 uM measured after 24 hrs by MTT assay relative to control. It is filed as functional.
Conditions: not given
`Cl.c1ccc(CCCCN2CCCc3[nH]c4ccccc4c3C2)cc1`: the Activity was determined as 35%.

Test system in the next data set: not listed separately
In words: Aqueous solubility of the compound in phosphate buffered saline at pH 7.4 by reverse phase HPLC analysis. In kind it is physicochemical.
Conditions: not given
What is called solubility is the concentration that dissolves in the medium under given conditions. `Cl.c1ccc(CCCCN2CCCc3[nH]c4ccccc4c3C2)cc1`: the solubility is above 1000 µM.

Take `Cl.c1ccc(CCCN2CCCc3[nH]c4ccccc4c3C2)cc1`: the solubility was above 1000 µM.

Take `Cl.c1ccc(CCN2CCCc3[nH]c4ccccc4c3C2)cc1`: the solubility is above 1000 µM.

The target in the next data set is Acetylcholinesterase (Electrophorus electricus, UniProt O42275). As to the kind of experiment: Inhibition of electric eel AChE using acetylthiocholine iodide as substrate preincubated for 20 mins followed by substrate addition and measured upto 5 mins by Ellman's method.
Chain of Acetylcholinesterase (Electrophorus electricus, UniProt O42275) (O42275 whole entry): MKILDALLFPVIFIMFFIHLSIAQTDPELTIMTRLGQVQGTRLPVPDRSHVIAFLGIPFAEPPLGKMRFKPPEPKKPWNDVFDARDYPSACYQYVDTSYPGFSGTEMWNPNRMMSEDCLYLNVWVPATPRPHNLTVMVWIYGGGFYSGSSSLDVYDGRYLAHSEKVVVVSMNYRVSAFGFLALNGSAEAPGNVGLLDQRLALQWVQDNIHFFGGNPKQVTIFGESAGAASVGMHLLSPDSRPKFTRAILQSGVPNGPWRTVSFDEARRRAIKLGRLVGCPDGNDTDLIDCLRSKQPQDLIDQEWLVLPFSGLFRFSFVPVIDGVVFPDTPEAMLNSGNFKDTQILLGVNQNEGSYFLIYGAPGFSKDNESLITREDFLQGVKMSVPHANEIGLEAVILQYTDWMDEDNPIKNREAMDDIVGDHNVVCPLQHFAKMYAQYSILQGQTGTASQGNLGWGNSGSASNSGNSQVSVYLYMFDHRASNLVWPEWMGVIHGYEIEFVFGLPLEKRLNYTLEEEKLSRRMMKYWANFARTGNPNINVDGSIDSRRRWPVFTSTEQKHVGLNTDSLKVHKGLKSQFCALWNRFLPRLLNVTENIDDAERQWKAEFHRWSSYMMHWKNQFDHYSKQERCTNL
Conditions: not given
As for `Cl.c1ccc(CCCCN2CCCc3[nH]c4ccccc4c3C2)cc1`, the pIC50 was 4.70.

On to `CCN(CC)Cc1ccc(CN2CCCc3[nH]c4ccc(F)cc4c3C2)cc1`, for which the negative-log IC50 (pIC50) was 5.32.

Compound `CN1CCCc2[nH]c3ccccc3c2C1` had a pIC50 of 5.15.

`Fc1ccc2[nH]c3c(c2c1)CN(Cc1ccc(CN2CCCC2)cc1)CCC3` had a pIC50 of 5.10.

As for `Fc1ccc(CN2CCCc3[nH]c4ccccc4c3C2)cc1`, the pIC50 is 4.92.

Compound `Cc1ccc2[nH]c3c(c2c1)CN(C)CCC3` had a pIC50 of 4.60.

With `Cl.c1ccc(CCCN2CCCc3[nH]c4ccccc4c3C2)cc1`, the pIC50 was 4.70.

`Cn1c2c(c3ccccc31)CN(CCc1ccccc1)CCC2` had a pIC50 of 4.92.

With `Fc1ccc(CN2CCCc3[nH]c4ccc(F)cc4c3C2)cc1`, the negative logarithm of the IC50 (pIC50) was 5.39.

On to `Fc1ccc2[nH]c3c(c2c1)CN(Cc1ccccc1)CCC3`, for which the pIC50 is 5.30.

Compound `Fc1ccc2[nH]c3c(c2c1)CNCCC3` showed a pIC50 of 4.80.

`Cl.c1ccc(CCN2CCCc3[nH]c4ccccc4c3C2)cc1`: the negative logarithm of the IC50 (pIC50) was 5.05.

As to `Cc1ccc(CN2CCCc3[nH]c4ccccc4c3C2)cc1`, the pIC50 is 5.00.

Consider `c1ccc(CN2CCCc3[nH]c4ccccc4c3C2)cc1`, for which the negative logarithm of the IC50 (pIC50) was 5.06.

In turn, `O=C(c1ccccc1)N1CCCc2[nH]c3ccc(F)cc3c2C1` had a negative-log IC50 (pIC50) of 4.97.

Take `c1ccc2c3c([nH]c2c1)CCCNC3`: the negative logarithm of the IC50 (pIC50) is 4.15.

In the case of `Fc1ccc2[nH]c3c(c2c1)CCCN(Cc1ccccc1)C3`, the pIC50 was 4.97.

For the compound `Cc1ccc2[nH]c3c(c2c1)CNCCC3`, the pIC50 was 4.35.

On to `Cc1ccc2[nH]c3c(c2c1)CN(Cc1ccccc1)CCC3`, for which the negative-log IC50 (pIC50) is 5.16.

The subject of the next data set is SH-SY5Y. As to the kind of experiment: Neuroprotective activity against H2O2-induced oxidative stress in human SH-SY5Y cells assessed as reduction in ROS generation at 100 uM preincubated for 1 hr followed by DCFH-DA addition for 30 mins and subsequent co-treatment with compound and H2O2 for 30 min by fluorescence assay.
Conditions: not given
In kind it is functional, cell-based.
In the case of `O=c1c(O)c(-c2ccc(O)c(O)c2)oc2cc(O)cc(O)c12`, the result was Active.
